What was measured:
[1] = Observation of the general state and body weight in ovariectomized rats; format: in vivo, SD rats; details: daily observation
[2] = test system: ovariectomized SD rats (rat osteoporosis model), femora; experiment: Animal efficacy test of increasing bone density and preventing osteoporosis (ovariectomized rat osteoporosis model); format: in vivo; details: left femora, 0.1 mg/100 g per day oral gavage, three months, N = 12, x ± s.d.

SMILES: CCCCC(=O)O[C@H]1CC[C@H]2[C@@H]3CCc4cc(O)ccc4[C@H]3CC[C@]12C [positive control, estradiol valerate]
- general state (exterior signs, behaviors, fecal property) compared with the model control group [1]: did not have significant difference in terms of exterior signs, behaviors, fecal property
- bone calcium content [2]: 178.2 ± 29.3 mg/g
- bone density BMD [2]: 0.207 ± 0.010 g/mL

— patent US20170014462A1, “BONE AND JOINT PROTECTION COMPOSITION AND USE THEREOF” (INFINITUS (CHINA) COMPANY LTD., priority 2015, published 2017)
